# Patent publication US11173145B2, “Compounds useful as inhibitors of indoleamine 2,3-dioxygenase and/or tryptophan dioxygenase” (Board of Regents, The University of Texas System, priority 2017, dated 2021)
# Target: T1, IDO1 (Homo sapiens, UniProt P14902)
# T1 construct: endogenous in cells; host or cells: HeLa cells (ATCC), IFNgamma-induced
# Experiment: IDO1 cell-based assay (HeLa cells, IFNgamma-induced, N-formylkynurenine/L-tryptophan by RFMS)
# Settings: 10 ng/mL IFNgamma, 24 hours
# Outline: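 N-formylkynurenine and tryptophan peak areas in media measured by RFMS (C18, isocratic, d-Trp standard), giving IC50 values by regression. Source: HeLa cells incubated 24 h with IFNgamma (10 ng/mL) plus test compound at 0.5% DMSO; parallel CellTiter-Glo viability read.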
# T1 sequence (P14902 whole entry): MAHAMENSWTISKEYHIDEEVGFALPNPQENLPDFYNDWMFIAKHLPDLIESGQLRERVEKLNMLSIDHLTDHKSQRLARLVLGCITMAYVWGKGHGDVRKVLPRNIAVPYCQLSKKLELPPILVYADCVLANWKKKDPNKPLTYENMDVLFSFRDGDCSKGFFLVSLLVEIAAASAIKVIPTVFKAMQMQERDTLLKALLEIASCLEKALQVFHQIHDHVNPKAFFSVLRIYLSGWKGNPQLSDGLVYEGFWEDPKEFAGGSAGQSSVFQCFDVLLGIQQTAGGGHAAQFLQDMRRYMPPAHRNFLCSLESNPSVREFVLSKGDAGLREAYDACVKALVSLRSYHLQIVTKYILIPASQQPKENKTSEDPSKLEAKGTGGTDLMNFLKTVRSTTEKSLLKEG
row,Compound,IC50 [nM]
1,"CC[C@@H](NC(=O)c1ccc(C#N)cc1)[C@H]1[C@@H]2C[C@@H](n3c(C)nc4ccc(C#N)cc43)C[C@@H]21 [Compound 293, 4-cyano-N-((R)-1-((1R,3S,5S,6r)-3-(6-cyano-2-methyl-1H-benzo[d]imidazol-1-yl)bicyclo[3.1.0]hexan-6-yl)propyl)benzamide]",200 to 2000
2,"CC[C@@H](NC(=O)c1csc(C)n1)[C@H]1[C@@H]2C[C@@H](n3cnc4cc(F)c(F)cc43)C[C@@H]21 [Compound 309, N-((R)-1-((1R,3S,5S,6r)-3-(5,6-difluoro-1H-benzo[d]imidazol-1-yl)bicyclo[3.1.0]hexan-6-yl)propyl)-2-methylthiazole-4-carboxamide]",200 to 2000
3,"O=C(NC(CCO)[C@H]1[C@@H]2C[C@@H](Oc3ncnc4ccc(F)cc34)C[C@@H]21)c1ccc(Cl)cc1 (stereo partly drawn) [Compound 137, 4-chloro-N-(1-((1R,3s, 5S, 6r)-3-((6-fluoroquinazolin-4-yl)oxy)bicyclo[3.1.0]hexan-6-yl)-3-hydroxypropyl)benzamide]",2000 to 5000
4,"CC(NC(=O)c1ccc(C#N)cc1)[C@H]1[C@@H]2C[C@@H](Oc3cnnc4ccccc34)C[C@@H]21 (stereo partly drawn) [Compound 135, N-(1-((1R,3s,5S,6r)-3-(cinnolin-4-yloxy)bicyclo[3.1.0]hexan-6-yl)ethyl)-4-cyanobenzamide]",200 to 2000

# Continued, values first:
row,IC50 [nM],Compound
1,< 200,"CC[C@@H](NC(=O)c1cccc(F)c1)[C@H]1[C@@H]2C[C@@H](n3cnc4cc(F)c(F)cc43)C[C@@H]21 [Compound 312, N-((R)-1-((1R,3S,5S,6r)-3-(5,6-difluoro-1H-benzo[d]imidazol-1-yl)bicyclo[3.1.0]hexan-6-yl)propyl)-3-fluorobenzamide]"
2,200 to 2000,"O=C(Cc1ccc(Cl)cc1)NC1[C@H]2CC(Oc3ccnc4ccc(F)cc34)C[C@@H]12 (stereo partly drawn) [Compound 31, 2-(4-chlorophenyl)-N-((1R,3r,5S)-3-((6-fluoroquinolin-4-yl)oxy)bicyclo[3.1.0]hexan-6-yl)acetamide]"
3,< 200,"C[C@H](C(=O)Nc1ccc(Cl)cc1)[C@H]1[C@@H]2C[C@@H](n3cnc4cc(F)c(F)cc43)C[C@@H]21 [Compound 299, (S)-N-(4-chlorophenyl)-2-((1R,3R,5S,6r)-3-(5,6-difluoro-1H-benzo[d]imidazol-1-yl)bicyclo[3.1.0]hexan-6-yl)propanamide]"
4,< 200,"CC[C@@H](NC(=O)c1ccc(Cl)cc1)[C@H]1[C@@H]2C[C@@H](NC(=O)c3ccccn3)C[C@@H]21 [Compound 333, N-((1R,3S,5S,6r)-6-((R)-1-(4-chlorobenzamido)propyl)bicyclo[3.1.0]hexan-3-yl)picolinamide]"
